Experimental data: patent publication US4578390A, “Hydroxybenzylamino derivatives as anti-inflammatory agents” (Merck & Co., Inc., priority 1983, dated 1986)

Columns and labels:
[1] = test system: inflammatory responses elicited by topically applied phorbol myristate acetate (PMA) or topically applied arachidonic acid (AA); experiment: Topical mouse ear assay (TME), edema; type: in vivo; details: PMA or AA challenge (which not stated), N=5 mice/group
Protocol: TABLE II Topical Mouse Ear Assay
Method: The right ears of mice (5 mice per group) were treated topically with either […] or 1000 μg AA alone or with the test compound in 25 μl of vehicle. The vehicle was water/pyridine/acetone (1:2:97). A control group of mice received the vehicle only. The mice were allowed food and water ad libitum during the treatment period; 2 hours for AA and 4 hours for PMA. The mice were sacrificed by cervical dislocation and a 6 mm diameter disc of tissue punched from both the treated and untreated ears. The tissue biopsies were immediately weighed and the weight increase of the treated ear relative to the weight of the untreated ear determined.
All of the data are expressed as the mean±SEM, N=5 mice/group.

[2] = test system: inflammatory responses elicited by topically applied phorbol myristate acetate (PMA) or topically applied arachidonic acid (AA); details: previously established; cited from earlier work
[3] = test system: erythema induced on the skin of guinea pigs by UV radiation; experiment: U.V. erythema assay; type: in vivo; details: topical, mean of 3 animals
Protocol: The U.V. erythema assay by which topical anti-inflammatory activity is determined, is based on the ability of the compounds of Formula I to inhibit the erythema induced on the skin of guinea pigs by UV radiation. It has been substantiated by recent studies that prostaglandin synthesis and the release thereof may be the primary process involved in the production of erythema. A protocol of the assay and some results thereof are summarized below in Table III.
Guinea pigs were depilated and stabilized for 30 minutes. Following anesthesia with Nembutal (35 mg/kg), they were exposed to a U.V. lamp for 45 minutes at a distance of seven inches from the abdominal surface. Compound was applied topically (seven applications in a total of 0.1 ml vehicle) 15 minutes post exposure. […]
Vehicle 1774--85% EtOH, 12% Propylene Glycol, 3% Methyl Salicylate
A numerical value 0-5 was assigned to the degree of erythema observed under standard lighting conditions. Drug effect on the developing erythema was calculated as follows: [formula] Results: % Inhibition of Erythema by (a) N-(2-hydroxy-5-methoxybenzyl)aniline

In the case of `COc1ccc(O)c(CNc2cccs2)c1` [A, 2-(2-hydroxy-5-methoxybenzylamino)thiophene], the “Edema (% inhibition)” value ([1]; dosage 300 μg) is reported as 77%.

With `COc1ccc(O)c(CNc2cccc3nsnc23)c1` [B, 4-(2-hydroxy-5-methoxybenzylamino)-2,1,3-benzothiadiazole] the “Edema (% inhibition)” value ([1]; dosage 300 μg) was 44%.

For `COc1ccc(O)c(CNc2nc3ccccc3[nH]2)c1` [C, 2-(2-hydroxy-5-methoxybenzylamino)benzimidazole], the “Edema (% inhibition)” value ([1]; dosage 300 μg) was 80%.

For `C[C@@H]1C[C@H]2[C@@H]3CCC4=CC(=O)C=C[C@]4(C)[C@@]3(F)[C@@H](O)C[C@]2(C)[C@@]1(O)C(=O)CO` [Dexamethasone, reference compound], the “activity in the topical mouse ear assay” value [2] is given as “active” and the “Edema (% inhibition)” value ([1]; dosage 150 μg) is given as 100%.

In the case of `COc1ccc2c(c1)c(CC(=O)O)c(C)n2C(=O)c1ccc(Cl)cc1` [Indomethacin, reference compound], the “activity in the topical mouse ear assay” value [2] is given as “active” and the “Edema (% inhibition)” value ([1]; dosage 1000 μg) is given as 88%.

In the case of `COc1ccc(O)c(CNc2ccccc2)c1` [N-(2-hydroxy-5-methoxybenzyl)aniline], the “% Inhibition of Erythema, 2 Hr.” value ([3]; 0.1 mg) is reported as 19.3%, the “% Inhibition of Erythema, 3 Hr.” value ([3]; 0.1 mg) is reported as 16.7% and the “% Inhibition of Erythema, 4 Hr.” value ([3]; 0.1 mg) is reported as 15.0%. For the same compound, the “% Inhibition of Erythema, 6 Hr.” value ([3]; 0.1 mg) was 6.7%, the “% Inhibition of Erythema, 24 Hr.” value ([3]; 0.1 mg) was 0% and the “% Inhibition of Erythema, 2 Hr.” value ([3]; 0.3 mg) was 55.3%. For the same compound, the “% Inhibition of Erythema, 3 Hr.” value ([3]; 0.3 mg) was 50.0%, the “% Inhibition of Erythema, 4 Hr.” value ([3]; 0.3 mg) was 46.7% and the “% Inhibition of Erythema, 6 Hr.” value ([3]; 0.3 mg) was 35.0%. The “% Inhibition of Erythema, 24 Hr.” value ([3]; 0.3 mg) was 0%, the “% Inhibition of Erythema, 2 Hr.” value ([3]; 1.0 mg) was 80.3% and the “% Inhibition of Erythema, 3 Hr.” value ([3]; 1.0 mg) was 91.7%. The “% Inhibition of Erythema, 4 Hr.” value ([3]; 1.0 mg) was 76.7%, the “% Inhibition of Erythema, 6 Hr.” value ([3]; 1.0 mg) was 63.3% and the “% Inhibition of Erythema, 24 Hr.” value ([3]; 1.0 mg) was 26.7%. The “% Inhibition of Erythema, 2 Hr.” value ([3]; 3.0 mg) was 100%, the “% Inhibition of Erythema, 3 Hr.” value ([3]; 3.0 mg) was 100% and the “% Inhibition of Erythema, 4 Hr.” value ([3]; 3.0 mg) was 63.3%. For the same compound, the “% Inhibition of Erythema, 6 Hr.” value ([3]; 3.0 mg) was 43.3% and the “% Inhibition of Erythema, 24 Hr.” value ([3]; 3.0 mg) was 33.3%.
